According to patent US12459957B2, “Therapeutic compounds and methods” (GENENTECH, INC., priority 2021, dated 2025):

Test system: neutrophils (PMA-stimulated NETosis)
Assay: Quantification of NETosis using SYTOX Green
Type: cell-based, human
Conditions: compound at 5 uM; NET-forming cells as percentage of total cells; vehicle 79.66, untreated 14.54
From the text: Semi-automated analysis of both phase and fluorescence images of SYTOX Green-stained neutrophils used a MATLAB algorithm. Total cells were counted by scoring phase standard deviation and radial symmetry. NETosis was classified in cells by measuring the DNA area in the fluorescence image and comparing with a select internal training set for each experiment. Unstimulated cells and PMA-stimulated, pyocyanin-inhibited cells served as negative controls. PMA-stimulated cells served as a positive control. NET-forming cells are presented as a percentage of total cells.

With `Cn1cc(Nc2ccc3c(c2)OCc2cc(-c4ccccc4)nn2C3)c(C#N)n1` [Example 34] the “5 uM (% NETosis)” value was 80.80%.
With `Cc1cn[nH]c1Nc1ccc2c(c1)OCc1cc(-c3ccccc3)nn1C2` [Example 35] the “5 uM (% NETosis)” value was 73.98%.
In the case of `FC(F)(F)CNc1ccc2c(c1)OCc1cc(-c3ccccc3)nn1C2` [Example 37], the “5 uM (% NETosis)” value was 83.25%.
For `CC(C)(C)Nc1ccc2c(c1)OCc1cc(-c3ccccc3)nn1C2` [Example 38], the “5 uM (% NETosis)” value was 81.48%.
In the case of `FC1(F)CC1CNc1ccc2c(c1)OCc1cc(-c3ccccc3)nn1C2` (stereo not drawn) [Example 40], the “5 uM (% NETosis)” value was 71.44%.
`C#CCNc1ccc2c(c1)OCc1cc(-c3ccccc3)nn1C2` [Example 41] was tested, and the “5 uM (% NETosis)” value was 73.65%.
For `OCC1(Nc2ccc3c(c2)OCc2cc(-c4ccccc4)nn2C3)CC1` [Example 42], the “5 uM (% NETosis)” value was 82.57%.
`CSc1ccccc1-c1cc2n(n1)Cc1ccc(NC(C)=O)cc1OC2` [Example 43] was tested, and the “5 uM (% NETosis)” value was 49.48%.
In the case of `C#Cc1ccccc1-c1cc2n(n1)Cc1ccc(NC(C)=O)cc1OC2` [Example 44], the “5 uM (% NETosis)” value was 83.27%.
`CC(=O)Nc1ccc2c(c1)OCc1cc(-c3ccc(F)cc3C#N)nn1C2` [Example 45] was tested, and the “5 uM (% NETosis)” value was 56.95%.
For `CC(=O)Nc1ccc2c(c1)OCc1cc(-c3ccc(F)cc3CO)nn1C2` [Example 46, N-(2-(4-fluoro-2-(hydroxymethyl)phenyl)-4H,10H-benzo[f]pyrazolo[5,1-c][1,4]oxazepin-7-yl)acetamide], the “5 uM (% NETosis)” value was 51.25%.
In the case of `CC(=O)Nc1ccc2c(c1)OCc1cc(-c3cccc(CC#N)c3)nn1C2` [Example 47], the “5 uM (% NETosis)” value was 62.82%.
For `CC(=O)Nc1ccc2c(c1)OCc1cc(-c3c(F)cccc3F)nn1C2` [Example 48], the “5 uM (% NETosis)” value was 42.40%.
In the case of `CC(=O)Nc1ccc2c(c1)OCc1cc(-c3c(O)cccc3F)nn1C2` [Example 49], the “5 uM (% NETosis)” value was 42.24%.
For `CC(=O)Nc1ccc2c(c1)OCc1cc(-c3ccccc3C)nn1C2` [Example 50], the “5 uM (% NETosis)” value was 72.49%.
With `CC(=O)Nc1ccc2c(c1)OCc1cc(-c3ccc(F)cc3O)nn1C2` [Example 51] the “5 uM (% NETosis)” value was 57.20%.
`CC(=O)Nc1ccc2c(c1)OCc1cc(-c3cnco3)nn1C2` [Example 52] was tested, and the “5 uM (% NETosis)” value was 66.03%.
For `CC(=O)Nc1ccc2c(c1)OCc1cc(-c3cncn3C)nn1C2` [Example 53], the “5 uM (% NETosis)” value was 57.77%.
For `CC(=O)Nc1ccc2c(c1)OCc1cc(-c3cccc(F)c3)nn1C2` [Example 56], the “5 uM (% NETosis)” value was 35.77%.
For `CC(=O)Nc1ccc2c(c1)OCc1cc(-c3cc[nH]n3)nn1C2` [Example 57], the “5 uM (% NETosis)” value was 87.44%.
`CC(=O)Nc1ccc2c(c1)OCc1cc(-c3c(C)cnn3C)nn1C2` [Example 59] was tested, and the “5 uM (% NETosis)” value was 66.88%.
`CC(=O)Nc1ccc2c(c1)OCc1cc(-c3ccnn3C3CC3)nn1C2` [Example 60] was tested, and the “5 uM (% NETosis)” value was 63.78%.
For `COc1cnccc1-c1cc2n(n1)Cc1ccc(NC(C)=O)cc1OC2` [Example 61], the “5 uM (% NETosis)” value was 78.57%.
`CC(=O)Nc1ccc2c(c1)OCc1cc(-c3ccnc(C4CC4)c3)nn1C2` [Example 62] was tested, and the “5 uM (% NETosis)” value was 41.23%.
With `CC(=O)Nc1ccc2c(c1)OCc1cc(-c3cnc4[nH]ccc4c3)nn1C2` [Example 63] the “5 uM (% NETosis)” value was 80.04%.
`CC(=O)Nc1ccc2c(c1)OCc1cc(-c3ccc(S(C)(=O)=O)nc3)nn1C2` [Example 64] was tested, and the “5 uM (% NETosis)” value was 75.82%.
`CC(=O)Nc1ccc2c(c1)OCc1cc(-c3cccnc3C3CC3)nn1C2` [Example 65] was tested, and the “5 uM (% NETosis)” value was 83.56%.
`CC(=O)Nc1ccc2c(c1)OCc1cc(-c3cn[nH]c3C)nn1C2` [Example 66] was tested, and the “5 uM (% NETosis)” value was 84.91%.
With `CC(=O)Nc1ccc2c(c1)OCc1cc(-c3ccnc(C#N)c3)nn1C2` [Example 69] the “5 uM (% NETosis)” value was 66.18%.
In the case of `COc1ccncc1-c1cc2n(n1)Cc1ccc(NC(C)=O)cc1OC2` [Example 70], the “5 uM (% NETosis)” value was 78.10%.
With `COc1cncc(-c2cc3n(n2)Cc2ccc(NC(C)=O)cc2OC3)c1` [Example 71] the “5 uM (% NETosis)” value was 69.95%.
With `CC(=O)Nc1ccc2c(c1)OCc1cc(-c3cnccc3C#N)nn1C2` [Example 72] the “5 uM (% NETosis)” value was 80.10%.
In the case of `CNC(=O)c1ccc(-c2cc3n(n2)Cc2ccc(NC(C)=O)cc2OC3)cn1` [Example 73], the “5 uM (% NETosis)” value was 82.63%.
